Marks after values point to notes of the source that are not given here.
Columns and labels:
[1] = tested on: S. epidermidis ATCC 35984; experiment: MIC/MBC microdilution; format: cell-based, Staphylococcus epidermidis
Protocol: (§1) The minimum inhibitory concentration (MIC) of the tested monomeric QAS was performed using the microdilution method according to CLSI recommendation (M27-A3). Concentrations from 10 to 1280 µM were analyzed. Strains were incubated with or without compounds (growth control) for 24 h at 37 °C. Three independent replicates were performed. The MIC value was determined spectrophotometrically and the concentration that inhibited more than 90% of growth was determined. Optical density was measured at λ = 590 nm using a 96-well microplate reader (Bio-Rad Universal Hood II).
(§2) To determine the minimum bactericidal concentration (MBC), 10 µL of bacterial suspension incubated with monomeric QAS (MIC concentration and two times higher) was transferred to plates with LB (1% tryptone, 1% yeast extract, 0.5% NaCl) medium. […] The concentration that reduced 99.9% of microbial growth was determined as MBC[54].

[2] = tested on: S. epidermidis SI8; experiment: MIC/MBC microdilution; format: cell-based, Staphylococcus epidermidis
Protocol: as §1, §2

[3] = tested on: S. aureus ATCC 6538; experiment: MIC/MBC microdilution; format: cell-based, Staphylococcus aureus; conditions: S. aureus ATCC 6538
Protocol: as §1, §2

[4] = tested on: S. aureus MRSA R98; experiment: MIC/MBC microdilution; format: cell-based, Staphylococcus aureus; conditions: for Minimal bactericidal concentration (*MBC): 99.9% reduction; for Minimal inhibitory concentration (MIC): 24 h, 37 °C, >90% growth inhibition
Protocol: as §1, §2

[5] = tested on: E. coli ATCC 11229; experiment: MIC/MBC microdilution; format: cell-based, Escherichia coli; conditions: E. coli ATCC 11229; for Minimal bactericidal concentration (*MBC): 99.9% reduction; for Minimal inhibitory concentration (MIC): 24 h, 37 °C, >90% growth inhibition
Protocol: as §1, §2

[6] = tested on: E. coli H64; experiment: MIC/MBC microdilution; format: cell-based, Escherichia coli; conditions: E. coli H64; for Minimal bactericidal concentration (*MBC): 99.9% reduction
Protocol: as §1, §2

[7] = tested on: P. aeruginosa ATCC 27853; experiment: MIC/MBC microdilution; format: cell-based, Pseudomonas aeruginosa; conditions: P. aeruginosa ATCC 27853; for Minimal bactericidal concentration (*MBC): 99.9% reduction; for Minimal inhibitory concentration (MIC): 24 h, 37 °C, >90% growth inhibition
Protocol: as §1, §2

[8] = tested on: P. aeruginosa PAO1; experiment: MIC/MBC microdilution; format: cell-based, Pseudomonas aeruginosa; conditions: for Minimal bactericidal concentration (*MBC): 99.9% reduction; for Minimal inhibitory concentration (MIC): 24 h, 37 °C, >90% growth inhibition
Protocol: as §1, §2

[9] = Critical micelle concentration by conductometric measurements; format: physicochemical; conditions: aqueous solution, 25 °C
Protocol: Values of critical micelle concentrations (CMC) of cationic surfactants were measured conductrometrically. N5721 conductometer (Tel-Eko Projekt sp z o.o., Poland), equipped with N5981 probe, was calibrated using 0.1 M, 0.01 M and 0.001 M KCl aqueous solutions (conductivities equal to 1.287 S/m, 0.141 S/m and 0.0147 S/m, respectively) and used without temperature compensation mode (constant temperature 25 °C was kept during all calibration procedures and measurements). Values of specific conductivities of at least 15 different concentrations for each surfactant were measured and plotted versus concentration; the discontinuity point was used to determine critical micelle concentration.

[10] = tested on: S. epidermidis B374; experiment: Adhesion to stainless steel; format: cell-based, Staphylococcus epidermidis
[11] = tested on: S. epidermidis ATCC 35984; experiment: Adhesion to polystyrene plate; format: cell-based, Staphylococcus epidermidis; conditions: 1280 µM, range given over two strains
Protocol: (§3) Adhesion analysis to polystyrene surfaces was determined according to the method of Rodrigues et al. with modifications. Polystyrene 96-well plates were incubated with the respective compound concentrations (10–1280 µM) for 4 h at 37 °C with 100 rpm shaking. The plates were then washed with miliQ and inoculated with 100 µL of bacterial suspension (OD = 0.4–0.6). Plates were incubated for 6 h at 37 °C with 100 rpm shaking. Wells were rinsed and fixed for 20 min at 60 °C. They were then […] with 0.1% crystal violet solution for 5 min. The wells were washed with miliQ until the unfixed dye was completely eluted. The absorbance at λ = 590 nm was measured using a reader (Bio-Rad Universal Hood II). The positive control was a surface not treated with QAS. Three independent trials were performed.

[12] = tested on: S. epidermidis B374; experiment: Adhesion to polystyrene plate; format: cell-based, Staphylococcus epidermidis
Protocol: as §3

[13] = tested on: P. aeruginosa PAO1; experiment: Adhesion to glass; format: cell-based, Pseudomonas aeruginosa; conditions: concentration not given
[14] = tested on: Salmonella typhimurium TA100; experiment: Mutagenicity (Ames test); format: cell-based; conditions: for Number of colonies: ± SD
Protocol: (§4) Two reference strains of Salmonella Typhimurium TA98 and Salmonella Typhimurium TA100, deficient in histidine synthesis, were used for this study according to the method proposed by Ames et al. with modifications. […] The mixture was mixed and poured onto a Davis minimal medium plate. The mixture without the test compound was used as a negative control. The positive control was a mixture of bacterial culture, biotin-histidine solution, and sodium azide (at a concentration of 15 μg/mL for strain TA100) or acriflavine (at a concentration of 100 μg/mL for strain TA98). Plates were incubated for 48 h at 37 °C, and then colonies were counted. The mutagenicity ratio (MR), the ratio of the number of revertants grown in the presence of the test compound to the number of spontaneously occurring revertants (negative control), was calculated. A mutagenic ratio equal to or greater than 1.7 indicates the mutagenic potential of the tested compounds. The study was performed in three times.

[15] = tested on: Salmonella typhimurium TA98; experiment: Mutagenicity (Ames test); format: cell-based; conditions: for Number of colonies: ± SD
Protocol: as §4

[16] = tested on: S. epidermidis B374; experiment: MIC/MBC microdilution; format: cell-based, Staphylococcus epidermidis; conditions: S. epidermidis B374
Protocol: as §1, §2

[17] = 99.9% reduction, read-out: Minimal bactericidal concentration (*MBC)
[18] = 24 h, 37 °C, >90% growth inhibition, read-out: Minimal inhibitory concentration (MIC)
[19] = 24 h, 37 °C, >90% growth inhibition

| SMILES | Minimal bactericidal concentration (*MBC) [4] | Minimal inhibitory concentration (MIC) [4] | Minimal bactericidal concentration (*MBC) [5] | Minimal inhibitory concentration (MIC) [5] | Minimal bactericidal concentration (*MBC) [6] | Minimal inhibitory concentration (MIC) [6, 19] | Minimal bactericidal concentration (*MBC) [7] | Minimal inhibitory concentration (MIC) [7] | Minimal bactericidal concentration (*MBC) [8] | Minimal inhibitory concentration (MIC) [8] | CMC [9] [mol/L] | reduction of adhesion to glass [13] | Mutagenicity index ([14]; ¼ MIC) | Number of colonies ([14]; ¼ MIC) | Mutagenicity index ([14]; ½ MIC) | Number of colonies ([14]; ½ MIC) | Mutagenicity index ([15]; ¼ MIC) | Number of colonies ([15]; ¼ MIC) | Mutagenicity index ([15]; ½ MIC) | Number of colonies ([15]; ½ MIC) | also measured |
| --- | --- | --- | --- | --- | --- | --- | --- | --- | --- | --- | --- | --- | --- | --- | --- | --- | --- | --- | --- | --- | --- |
| CCCCCCCCCCCCN(C)CCC[N+](C)(C)C.COC(=O)[O-] [MeC12, [(3-dodecyilomethyloamine)propyl] trimethylammonium methylcarbonate] | 640 *640 µM | 640 *640 µM | 640 *640 µM | 640 *640 µM | 640 *640 µM | 640 *640 µM | > 1280 * > 1280 µM | > 1280 * > 1280 µM | > 1280 * > 1280 µM | > 1280 * > 1280 µM | 0.014 | approximately 20% | 0.74 | 208 ± 17 | 0.94 | 264 ± 11.3 | 0.75 | 17 ± 3.6 | 0.92 | 21 ± 3.6 | MBC [1, 17]: 640 µM; MIC [1, 18]: 320 µM; MBC [2, 17]: 640 µM; MIC [2, 18]: 320 µM; MBC [3, 17]: 640 µM; MIC [3, 18]: 320 µM; inhibition of adhesion to stainless steel ([10]; 1280 µM, ranges given over several strains): 69–88%; reduced adhesion to polystyrene [11]: 25–46%; reduced adhesion to polystyrene ([12]; 1280 µM): 25–46% |
| CCCCCCCCCCCCCCCCN(C)CCC[N+](C)(C)C.COC(=O)[O-] [MeC16, [(3-hexadecyilomethyloamine)propyl] trimethylammonium methylcarbonate] | 40 *40 µM | 40 *40 µM | 320 *320 µM | 320 *320 µM | 80 *80 µM | 80 *80 µM | > 1280 * > 1280 µM | > 1280 * > 1280 µM | > 1280 * > 1280 µM | > 1280 * > 1280 µM | 0.0012 | approximately 20% | 1.09 | 305 ± 8.7 | 1.09 | 306.7 ± 11.5 | 0.39 | 9 ± 2 | 0.19 | 4.3 ± 3.1 | Minimal bactericidal concentration (*MBC) ([1]; 99.9% reduction): 40 *40 µM; Minimal inhibitory concentration (MIC) [1, 19]: 40 *40 µM; MBC [16, 17]: 160 µM; MIC [16, 18]: 80 µM; Minimal bactericidal concentration (*MBC) ([2]; 99.9% reduction): 10 *10 µM; Minimal inhibitory concentration (MIC) [2, 19]: 10 *10 µM; Minimal bactericidal concentration (*MBC) ([3]; 99.9% reduction): 10 *10 µM; Minimal inhibitory concentration (MIC) [3, 19]: 10 *10 µM; MIC [6, 18]: 80 µM; inhibition of adhesion to stainless steel ([10]; concentration not given, range given over three strains): 69–83%; reduction in adhesion to polystyrene ([12]; 320 µM): 77% |

— article PMC9757636, “The effectiveness of newly synthesized quaternary ammonium salts differing in chain length and type of counterion against priority human pathogens” (Scientific Reports, 2022)
